In patent US12161136B2, “Screening methods using GPRC6A taste receptors and pet food products and compositions prepared using the same” (MARS, INCORPORATED, priority 2018, dated 2024):

Legend:
cats = assay: Cat feeding test (2-bottle choice test); format: in vivo; conditions: 0.15 mM L-ornithine hydrochloride in water vs plain water; 24 cats; 36 hours testing time
Protocol: Cats were allowed access to water containing 0.15 mM L-ornithine hydrochloride and to plain water. The methodology used a 2-bottle choice test with 24 cats (the final number of cats for each test can vary due to data being discarded by spillage, etc.). Cats were housed individually during trial periods and had free access to water available between testing periods. The test involved a choice test between the tastant/mixture at a given concentration dissolved in deionized water versus deionized water only or another tastant/mixture. Control was made for positional bias (e.g., A/B exposure 1 and B/A exposure 2) and evaporation loss. The testing time was 36 hours (i.e., 18 hours per day, allowing a two-day crossover). Following two consecutive days of each testing, cats had two consecutive days of rest. Cats were offered a dry diet as a single meal at the start of the test period for one hour, calculated to meet the individual requirements for each cat.

feline GPRC6A = assay: fGPRC6A calcium assay in HEK-293 T-REx/natClytin cells (FLIPR Tetra, Fluo-4 AM fluorescence); format: cell-based; conditions: for Activation of the fGPRC6A receptor (intracellular calcium response): ligand alone, K2.3 clone, doxycycline-induced, Fluo-4 AM read-out
Protocol: The HEK-293 […] cell line was stably transfected by electroporation. Briefly, 3×10^6 cells detached from 60% confluent flasks were transfected with 10 μg of DNA construct by using the Gene Pulser II electroporator (Biorad) (parameters: 300 Volts, 950 μF). […] Tetra system was used to measure fluorescence or luminescence. HEK293 cells that transiently or stably expressed the […] taste receptor, were exposed to compounds to determine whether the compounds modulated the activity of the […] receptor. In particular, […] cell line was used as recipient cell line and stable transfections were carried out using an inducible expression construct encoding for the feline GPRC6A in combination with the chimeric Ga protein Gaq[…]. Stable pools underwent a first limiting dilution (LD) and the best clones were chosen after stimulation with the reference ligand L-Arg+20 mM Mg^2+, using both a fluorescent and a luminescent read-out. Four selected first LD clones were subjected to a second round of LD; CPA was then performed in order to choose the best performing clones. On the basis of the functional data obtained at FLIPR® Tetra, the final K2.3 clone was chosen for the subsequent optimization steps. Fluorescence (Fluo-4 AM dye) was chosen as best read-out given its higher sensitivity in comparison to luminescence. In particular, cells were seeded at 7,500 cells/well and tested 48 h after seeding (Doxycycline was added at 1 μg/mL 24 h after seeding). Then, medium was removed, and cells were incubated with Fluo-4 AM dye (20 μL/well) for 1 h at 37° C. […]

SMILES: Cl.NCCC[C@H](N)C(=O)O [L-ornithine, L-ornithine hydrochloride]
- Average difference in intake versus plain water (cats): 15.28 g

SMILES: COc1cccc([C@@H](C)NCCCc2ccccc2Cl)c1 [NPS R-568]
- Activation of the fGPRC6A receptor (intracellular calcium response) (feline GPRC6A): not functional

SMILES: [Mg+2] [magnesium ion]
- Modulation of the response to the tested L-alpha-amino acids (feline GPRC6A; 20 mM Mg2+ together with L-Arginine, L-Ornithine or L-Lysine): positive allosteric modulator
- Activation of the fGPRC6A receptor (intracellular calcium response) (feline GPRC6A): not activated
